According to US12098118B2 (Regents of the University of Minnesota, priority 2018, dated 2024):
Like-named read-outs stand apart in the source and are kept apart here.

Experiments:
mice [1] = assay: acute in vivo bioassay of spinal opioid analgesic tolerance (ENDO-2 pre-treatment, warm water immersion tail flick test)
Source text: To evaluate the effects of the compounds in opioid tolerance an acute in vivo bioassay of opioid analgesic tolerance was employed. In this instance, either a large dose of the mu opioid receptor selective neuropeptide ENDO-2 is given or vehicle. When the analgesic effects are no longer evident, a second analgesic dose of ENDO-2 is given. The second analgesic dose of ENDO-2 is effective in the group pre-treated with saline, but not in the group that was pre-treated with the large dose of ENDO-2. When agmatine or when one of the SSA is given together with the large pre-treatment dose of ENDO-2, the second analgesic dose of ENDO-2 is effective. In this bioassay, agmatine and most of the SSAs prevented the development of opioid tolerance.
Formula I compounds from Table 2 were evaluated for their impact on the development of opioid analgesic tolerance when dosed central (intrathecally) and systemically (intraperitoneally). […] When a high dose of ENDO-2 is intrathecally injected a subsequent analgesic dose is no longer effective (30 minutes later) (Stone et al., 1997). This is a model of opioid-induced analgesic tolerance.
When that second group received a second injection of ENDO-2 (same dose as in the SAL group), the analgesic effect was not observed. Analgesic tolerance to ENDO-2 was, therefore, induced. […] AG 4 nmol (third bar from left).

[2] = system: mice with chronic pain induced by nerve-injury; assay: spinal nerve injury-induced neuropathic pain, von Frey monofilament tactile hypersensitivity; format: in vivo
female mice = assay: oral oxycodone self-administration model of opioid addiction (active vs control lever); format: in vivo
Protocol: FIGS. 6A and 6B show an in vivo model of opioid addiction in mice. […] Open symbols represent the lever pressing of mice on the “control” lever that result in no reward. Solid symbols represent the lever pressing of mice on the “active lever” which results in delivery of a 70 μL volume of oxycodone into a receptacle. The mice lick or drink the opioid from the receptacle.
Formula I compounds were assessed for similar effects in a model of oral oxycodone self-administration. […] Standard enclosed operant conditioning chambers modeled opioid addiction where in response to a light cue, mice have an opportunity to choose between one of two levers. Pressing one lever (the “Active” lever) results in delivery of a small quantity of oxycodone to a drinking receptacle where the mouse can lick or drink the fluid. Pressing the other lever (termed “Control” lever) results in no reward. In this experiment, female mice were separated into two groups; both groups were trained to lever press for oxycodone reward after pressing the “Active” lever of a two lever choice. Initially one lever press results in one delivery of opioid fluid. Pressing the “control” lever offers no reward. […] On day 15, they were required to press the active lever 3 times to seek the reward. […] The mice were given six injections over a period of 8 days. […] Responses were monitored from Day 20-40 of the experiment. […]

nerve-injured mice [3] = assay: rotarod assay of motor dysfunction and sedation; settings: for rotarod performance: intravenously administered, doses effective in nerve-injured mice, 30 minutes post-injection
[4] = cardiovascular measures / heart rate after i.v. injection; settings: in vivo
mice [5] = assay: development of central morphine tolerance (intrathecal morphine, warm water tail flick test); format: in vivo; settings: for ED50 (nmol, i.t.): tail flick day 4
Protocol: On day 4, four cumulative doses of morphine were given intrathecally to assess tolerance in the warm water tail flick test.
(§1) Doses were administered t.i.d. every 8 hours for 4 days. On day 6, four cumulative doses of morphine were given subcutaneously to assess tolerance in the warm water (52° C.) tail flick test.

mice [6] = assay: development of chronic systemic morphine tolerance (s.c. morphine, warm water 52° C. tail flick test); format: in vivo; settings: for development of systemic morphine tolerance: systemic co-administration with morphine (FIGS. 7B-D)
Protocol: as §1

[7] = in vivo
nerve-injured mice [8] = settings: intrathecal, previously observed; cited from earlier work
rats = settings: Morgan et al. 2002; cited from earlier work
[9] = co-administered intrathecally (it) with tolerance-inducing ENDO-2 pre-treatment, agmatine 4 nmol
[10] = delivered systemically, 100 mg/kg ip, with intrathecal ENDO-2 pre-treatment
[11] = delivered systemically, ip, dose not given
[12] = IV, 0.45, 1.35, 4.5 micromoles/kg, induction and maintenance phase, ipsilateral hindpaw
[13] = morphine i.t. ED50 (interval in brackets) after pre-treatment Morphine (10 nmol, i.t.) + compound (10 nmol, i.t.) or VEH b.i.d. 3 days

Row | SMILES | development of opioid analgesic tolerance to ENDO-2 (mice [1]; [9]) | development of opioid analgesic tolerance to ENDO-2 (mice [1]; [10]) | development of opioid analgesic tolerance to ENDO-2 (mice [1]; [11]) | hindpaw withdrawal thresholds (von Frey) [2, 12] | rotarod performance (nerve-injured mice [3]) | impact on cardiovascular measures [4] | development of systemic morphine tolerance (mice [6]) | also measured
1 | CCOC(=O)/N=C(/N)NCCCCNC(C)=O [J-6] | prevented the development of opioid analgesic tolerance | prevented the development of opioid analgesic tolerance |  |  |  |  |  | 
2 | CC(=O)NCCCCN/C(=N\C(=O)OC(C)(C)C)NC(=O)OC(C)(C)C [J-4, 4-(2,3-bis(tert-butyloxycarbonyl)guanidino)butylacetamide] |  |  | prevented the development of opioid analgesic tolerance | the hindpaw withdrawal thresholds elevated toward control levels of responding | did not impact rotarod performance | no impact on cardiovascular measures |  | reduction of established neuropathic pain compared with agmatine at the same dose ([2]; IV, 1.35 micromoles/kg, maintenance phase for J-4 (FIG. 2F vs 2B)): distinctly greater than that of agmatine at the same dose; preference for active versus control lever (oxycodone) (female mice; intraperitoneal (IP) injection prior to session (FIG. 6B)): showed greatly reduced preference for the active versus the control lever; preference for active versus control lever (oxycodone) (female mice; intravenous injections, 30 mg/kg, six injections over 8 days): showed little preference for the lever after injections were initiated
3 | CCOC(=O)/N=C(\NCCCCN)NC(=O)OCC.Cl [J-8, 4-(2,3-bis(ethoxycarbonyl)guanidino)butan-1-aminium chloride] | prevented the development of opioid analgesic tolerance |  | prevented the development of opioid analgesic tolerance |  |  | no impact |  | hindpaw withdrawal thresholds (von Frey) ([2]; IV, five doses 0.045, 0.0135, 0.45, 1.35, 4.5 micromoles/kg (approximately 1-100 mg/kg), induction phase): the hindpaw withdrawal thresholds elevated significantly toward control levels of responding in a dose-dependent manner; motor impairment (nerve-injured mice [3]; early side effects studies): no impact
4 | CCOC(=O)/N=C(/N)NCCCCNC(=O)OCC [J-1, ethyl (amino((4-((ethoxycarbonyl)amino)butyl)amino)methylene)carbamate] |  |  |  |  |  |  | reduces or prevents the development of systemic morphine tolerance | development of opioid analgesic tolerance to ENDO-2 (mice [1]; systemically, dose range of 1-30 mg/kg): did not prevent the development of opioid analgesic tolerance; development of central morphine tolerance (mice [5]; intrathecal co-administration with morphine (FIG. 7A)): prevented the development of central morphine tolerance; ED50 (nmol, i.t.) (mice [5]; [13]): 2.86 (2.41, 3.40) nmol; ED50 (nmol, i.t.) (mice [5]; morphine i.t. ED50 (interval in brackets) after pre-treatment Saline + compound (10 nmol, i.t.) b.i.d. 3 days): 3.82 (2.95, 4.94) nmol; time to onset of effect compared to agmatine ([2]; mouse, in vivo): significantly earlier time to onset of effect
5 | N=C(N)NCCCCN [agmatine, 1-(4-aminobutyl)guanidine, reference compound] | protected against the induction of opioid tolerance |  |  | the hindpaw withdrawal thresholds elevated toward control levels of responding | did not impact rotarod performance |  | reduces or prevents the development of systemic morphine tolerance | impact on cardiovascular measures [7]: no impact on cardiovascular measures; rotarod performance (nerve-injured mice [8]): does not impact rotarod performance; heroin-induced self-administration (rats): diminishes heroin-induced self-administration in rats
6 | CCOC(=O)NCCCCNC(=N)N [J-2, ethyl (4-guanidinobutyl)carbamate] | prevented the development of opioid analgesic tolerance | prevented the development of opioid analgesic tolerance |  |  |  |  | reduces or prevents the development of systemic morphine tolerance | 
7 | CCOC(=O)/N=C(/N)NCCCCN [J-7, 4-(2-(ethoxycarbonyl)guanidino) butan-1-aminium 2,2,2-trifluoroacetate] |  | prevented the development of opioid analgesic tolerance |  |  |  |  |  | development of opioid analgesic tolerance to ENDO-2 (mice [1]; systemically delivered, 10 mg/kg dose): prevented the development of opioid analgesic tolerance
8 | CCOC(=O)/N=C(\NCCCCNC(C)=O)NC(=O)OCC [J-3] | prevented the development of opioid analgesic tolerance |  | prevented the development of opioid analgesic tolerance | the hindpaw withdrawal thresholds elevated toward control levels of responding | did not impact rotarod performance | no impact on cardiovascular measures |  | response compared to the response of agmatine ([2]; IV, 0.45, 1.35, 4.5 micromoles/kg): No significant difference
9 | CN1CC[C@]23c4c5ccc(O)c4O[C@H]2[C@@H](O)C=C[C@H]3[C@H]1C5 [Morphine, morphine, reference compound] |  |  |  |  |  |  |  | ED50 (nmol, i.t.) (mice [5]; [13]): 10.84 (4.94, 23.82) nmol; ED50 (mice [6]; Mus musculus, sc, 144 h, morphine s.c. ED50 after pre-treatment Morphine (10 mg/kg, s.c.) + compound (3 mg/kg s.c.) or VEH t.i.d. 4 days, tail flick day 6, read-out: ED50 (95% CI) (mg/kg, s.c.)): 24.9 mg/kg
10 | CC(=O)NCCCCNC(=N)N [J-5, N-(4-guanidinobutyl)acetamide] | prevented the development of opioid analgesic tolerance | prevented the development of opioid analgesic tolerance |  |  |  |  |  | 
